# Data from BindingDB's records for doi:10.1016/j.bmc.2011.12.062 (The Ohio State University College of Medicine, 2012).
# Assay: Displacement of thioflavin T from insulin amyloid fibrils by thioflavin-T fluorescent dye assay
row,IC50 [nM],Structure (SMILES)
1,80,CN(C)c1ccc(/C=C/c2sc3ccccc3[n+]2CCCCCOc2ccccc2)cc1
2,120,CCCCCCC[n+]1c(/C=C/c2ccc(N(CC)CC)cc2)sc2ccccc21
3,90,CCCCCCC[n+]1c(/C=C/c2ccc(N(CCCC)CCCC)cc2)sc2ccccc21
4,6,CC[n+]1c(/C=C/c2ccc(N(C)C)cc2)sc2ccccc21
5,5.2,CN(C)c1ccc(/C=C/c2sc3ccc(Cl)cc3[n+]2C)cc1
6,7.5,Cc1ccc2sc(/C=C/c3ccc(N(C)C)cc3)[n+](C)c2c1
7,6,Cc1ccc2c(c1)sc(/C=C/c1ccc(N(C)C)cc1)[n+]2C
8,12,CN(C)c1ccc(/C=C/c2sc3cc([N+](=O)[O-])ccc3[n+]2C)cc1
9,1200,CN(C)c1ccc(/N=N/c2nc3ccccc3s2)cc1
10,700,COc1ccc2nc(/N=N/c3ccc(N(C)C)cc3)sc2c1
11,1300,CN(C)c1ccc(/N=N/c2nc3ccc(Cl)cc3s2)cc1
12,10,COc1ccc2c(c1)sc(/N=N/c1ccc(N(C)C)cc1)[n+]2C
13,60,CN(C)c1ccc(/N=N/c2sc3ccccc3[n+]2C)cc1
14,12,CN(C)c1ccc(/C=C/c2sc3ccccc3[n+]2Cc2ccccc2)cc1
15,27,CCCC[n+]1c(/C=C/c2ccc(N(C)C)cc2)sc2ccccc21
16,83,CCCCCCC[n+]1c(/C=C/c2ccc(N(C)C)cc2)sc2ccccc21
17,32,CN(C)c1ccc(/C=C/c2sc3ccc(F)cc3[n+]2Cc2ccccc2)cc1

row,IC50 [nM],Structure (SMILES)
1,50,Cc1ccc2c(c1)sc(/C=C/c1ccc(N(C)C)cc1)[n+]2Cc1ccccc1
2,40,CCCCCCC[n+]1c(/C=C/c2ccc(N(C)C)cc2)sc2cc(OC)ccc21
3,42,CN(C)c1ccc(/C=C/c2sc3ccccc3[n+]2Cc2ccc(F)cc2)cc1
4,34,CN(C)c1ccc(/C=C/c2sc3ccccc3[n+]2Cc2ccc(-c3ccccc3)cc2)cc1
5,80,CN(C)c1ccc(/C=C/c2sc3ccccc3[n+]2Cc2ccccc2-c2ccccc2)cc1
6,180,CN(C)c1ccc(/C=C/c2sc3ccccc3[n+]2Cc2cccc(Oc3ccccc3)c2)cc1
7,80,CN(C)c1ccc(/C=C/c2sc3ccccc3[n+]2C/C=C/c2ccccc2)cc1
8,210,CN(C)c1ccc(/C=C/c2sc3ccccc3[n+]2CCCC(c2ccccc2)c2ccccc2)cc1
9,52,CN(C)c1ccc(/C=C/c2sc3ccccc3[n+]2CCCOCc2ccccc2)cc1
10,42,CCCCCCC[n+]1c(/C=C/c2ccc(-n3cccc3)cc2)sc2ccccc21
11,41,CN(C)c1ccc(/C=C/c2sc3c(Cc4ccccc4)c(Cc4ccccc4)ccc3[n+]2C)cc1
12,13,CN(C)c1ccc(/C=C/c2sc3ccccc3[n+]2Cc2ccc3ccccc3c2)cc1
13,40,CCCCCCC[n+]1c(/C=C/c2ccc(N(C)C)c3ccccc23)sc2ccccc21
14,26,COc1ccc2c(c1)sc(/C=C/c1ccc(N(C)C)c3ccccc13)[n+]2C
15,130,Nc1ccc(/N=N/c2nc3ccccc3s2)c2ccccc12
16,340,COc1ccc2nc(/N=N/c3ccc(N(C)C)c4ccccc34)sc2c1
17,41,CN(C)c1ccc(/C=C/c2sc3ccc(Cc4ccccc4)c(Cc4ccccc4)c3[n+]2C)cc1

row,Structure (SMILES),IC50 [nM]
1,CN(C)c1ccc(/C=C/c2nc3cc(Cl)ccc3s2)cc1,> 100000
